Measurements as given in US20230293404A1, “Compositions Comprising Natural Polymers and One or More (Bio)-Alkanediols” (Symrise AG, priority 2020, published 2023).

Legend:
[1] = test system: microbial load of natural polymers; assay: Microbial load of mixtures of natural polymers with alkanediols (plating, CFU count); format: cell-based, bacteria
Method: The following tests were performed to show the influence of different alkanediols on the microbial load of natural polymers.
A selection of natural polymers as specified in Table 1 was systematically analyzed in combination with different 1,2-alkanediols and 2,3-alkanediols (0.5%). The polymers were chosen to be representative from different polymer classes:
A mixture of the natural polymer (concentration as recommended by supplier) with water and 1,2-alkanediol (0.5%) or 2,3-alkanediol (0.5%) or a mixture of 1,2-alkanediol and 2,3-alkanediol (0.5% final concentration) was prepared, as representative of a cold formulation preparation processes, and directly sampled for determination of microbial load. Additionally, the mixtures were stored at 40° C. and again sampled for microbial load after 2 days and 7 days.
The microbial load of the mixtures was determined by plating 1000 μl (or respective dilutions of the material) on an agar plate based on universal bacterial growth medium (Caseinpepton-Sojamehlpepton-Bouillon, Merck 1.05459+Agar No. 1, Oxoid LP0011). The plates were then incubated at 37° C. for 5 days and then photo documented. In parallel, bacterial colonies were counted (CFU—colony forming units per ml).

[2] = Physical state of alkanediols and alkanediol mixtures at RTP; format: physicochemical; conditions: at RTP (room temperature, normal pressure); FIG. 3 and FIG. 4
Excerpt: The term “liquid alkanediol” within the context of the present invention means an alkanediol component which is liquid at room or ambient temperature and under normal pressure, i.e. standard RTP conditions.
FIG. 3 is a photograph showing from left to right samples of the liquid 1,2-pentanediol, 1,2-hexanediol, 1,2-heptanediol, 2,3-heptanediol, 2,3-octanediol and 2,3-undecanediol in comparison to the solid 1,2-octanediol, 1,2-undecanediol, 1,2-nonanediol and the liquid 2,3-nonanediol. The first six alkanediols are liquid at RTP, whereas 1,2-octanediol, 1,2-nonanediol and 1,2-undecanediol are solid substances at RTP; 2,3-nonanediol is also liquid at RTP.
FIG. 4 is a representative photograph of samples of mixtures of 1,2-alkanediols with the respective 2,3-alkanediol. All mixtures are liquid. They are shown in the following order: 1,2-heptanediol (95%)+2,3-heptanediol (5%), 1,2-octanediol (95%)+2,3-octanediol (5%), and 1,2-nonanediol (95%)+2,3-nonanediol (5%).

[3] = Maximum solubility of alkanediols in water (visual assessment); format: physicochemical; conditions: assessed at ambient temperature after 24 h storage at 5° C.; visual observation
Excerpt: The water solubility of a substance is the saturation mass concentration of the substance in water at a given temperature. The determination of the solubility in water relates to essentially pure substances which are stable in water and not volatile.
For the determination of the maximum water solubility of an alkanediol, water and different concentrations of the respective alkanediol were blended by stirring. […] The determination of whether the alkanediol has dissolved in water is based entirely on visual observation.

[4] = Covathick (0.5%) in water + 0.5% 2,3-alkanediol, 2 days storage at 40° C.
[5] = Covathick (0.5%) in water + 0.5% 2,3-alkanediol, 7 days storage at 40° C.
[6] = Covathick (0.5%) in water + 0.5% 2,3-alkanediol, fresh
[7] = Genuvisco (0.5%) in water + 0.5% 2,3-alkanediol, 2 days storage at 40° C.
[8] = Genuvisco (0.5%) in water + 0.5% 2,3-alkanediol, 7 days storage at 40° C.
[9] = Genuvisco (0.5%) in water + 0.5% 2,3-alkanediol, fresh
[10] = Polycos-N 75 (0.5%) in water + 0.5% 2,3-alkanediol, fresh

Structure (SMILES)	Physical state [2]	Maximum solubility in water [3] [% by weight]	Bacterial load (colony forming units) [1, 4] [CFU per mL]	Bacterial load (colony forming units) [1, 5] [CFU per mL]	Bacterial load (colony forming units) [1, 6] [CFU per mL]	Bacterial load (colony forming units) [1, 7] [CFU per mL]	Bacterial load (colony forming units) [1, 8] [CFU per mL]	Bacterial load (colony forming units) [1, 9] [CFU per mL]	Bacterial load (colony forming units) [1, 10] [CFU per mL]	further results
CCCC(O)CO (centres unmarked) [1,2-pentanediol]	liquid	50	–	–	–	–	–	–	–	Bacterial load (colony forming units) ([1]; Covathick (2009, cellulose 0.5%) in water + 0.5% 1,2-alkanediol, 2 days storage at 40° C.): >13 CFU per ml; Bacterial load (colony forming units) ([1]; Covathick (2009, cellulose 0.5%) in water + 0.5% 1,2-alkanediol, 7 days storage at 40° C.): 4 CFU per ml; Bacterial load (colony forming units) ([1]; Covathick (2009, cellulose 0.5%) in water + 0.5% 1,2-alkanediol, fresh): 84 CFU per ml; Bacterial load (colony forming units) ([1]; Genuvisco (CG-131, carrageenan 0.5%) in water + 0.5% 1,2-alkanediol, 2 days storage at 40° C.): 2800 CFU per ml; Bacterial load (colony forming units) ([1]; Genuvisco (CG-131, carrageenan 0.5%) in water + 0.5% 1,2-alkanediol, 7 days storage at 40° C.): 0 CFU per ml; Bacterial load (colony forming units) ([1]; Genuvisco (CG-131, carrageenan 0.5%) in water + 0.5% 1,2-alkanediol, fresh): 35 CFU per ml; Bacterial load (colony forming units) ([1]; Nativacare (5600, corn starch 3%) in water + 0.5% 1,2-alkanediol, 2 days storage at 40° C.): 27 CFU per ml; Bacterial load (colony forming units) ([1]; Nativacare (5600, corn starch 3%) in water + 0.5% 1,2-alkanediol, 7 days storage at 40° C.): >1000 CFU per ml; Bacterial load (colony forming units) ([1]; Nativacare (5600, corn starch 3%) in water + 0.5% 1,2-alkanediol, fresh): 0 CFU per ml; Bacterial load (colony forming units) ([1]; Polycos-N 75 (guar gum 0.5%) in water + 0.5% 1,2-alkanediol, 7 days storage at 40° C.): 13 CFU per ml; Bacterial load (colony forming units) ([1]; Polycos-N 75 (guar gum 0.5%) in water + 0.5% 1,2-alkanediol, fresh): 13 CFU per ml; Bacterial load (colony forming units) ([1]; Xanthan Gum (Rheocare XGN 0.5%) in water + 0.5% 1,2-alkanediol, fresh): >249 CFU per ml
CCCCCCCCCC(O)CO (centres unmarked) [1,2-undecanediol]	solid	–	–	–	–	–	–	–	–	–
CCCCC(O)C(C)O (centres unmarked) [2,3-heptanediol]	liquid	3.6	0	0	5	1	1	5	2	Bacterial load (colony forming units) ([1]; Table 4: Covathick (0.5%) in water + alkanediol or mixture, 0.5% total, 2 days storage at 40° C.): 0 CFU per mL; Bacterial load (colony forming units) ([1]; Table 4: Covathick (0.5%) in water + alkanediol or mixture, 0.5% total, 7 days storage at 40° C.): 0 CFU per mL; Bacterial load (colony forming units) ([1]; Table 4: Covathick (0.5%) in water + alkanediol or mixture, 0.5% total, fresh): 5 CFU per mL; Bacterial load (colony forming units) ([1]; Table 4: PolyCos N-75 (0.5%) in water + alkanediol or mixture, 0.5% total, fresh): 2 CFU per mL
CCCCCCC(O)C(C)O (centres unmarked) [2,3-nonanediol]	liquid	0.3	–	–	–	–	–	–	–	–
CCCCCCCCC(O)C(C)O (centres unmarked) [2,3-undecanediol]	liquid	–	0	0	0	0	0	0	0	Bacterial load (colony forming units) ([1]; Polycos-N 75 (0.5%) in water + 0.5% 2,3-alkanediol, 2 days storage at 40° C.): 0 CFU per mL; Bacterial load (colony forming units) ([1]; Polycos-N 75 (0.5%) in water + 0.5% 2,3-alkanediol, 7 days storage at 40° C.): 0 CFU per mL; Bacterial load (colony forming units) ([1]; Xanthan Gum (0.5%) in water + 0.5% 2,3-alkanediol, 2 days storage at 40° C.): 0 CFU per mL; Bacterial load (colony forming units) ([1]; Xanthan Gum (0.5%) in water + 0.5% 2,3-alkanediol, 7 days storage at 40° C.): 0 CFU per mL; Bacterial load (colony forming units) ([1]; Xanthan Gum (0.5%) in water + 0.5% 2,3-alkanediol, fresh): 0 CFU per mL; Effect on the microbial load of the natural polymer solutions (in words) ([1]; directly after preparation of the mixtures as well as after 7 days storage, Table 3): superior antimicrobial activity
